The values that follow are results of earlier work, collected in publication PMC12309854, “Evidencing the role of a conserved polar signaling channel in the activation mechanism of the μ-opioid receptor” (Computational and Structural Biotechnology Journal, 2025).

The series concerns the target MOP. Details: method as in PMID 31527522. As to conditions: value given in the method for the Cheng-Prusoff calculation, source not stated; protocol ref 58; read-out: Kd of the radioligand. How it is done: Binding assays were carried out following a previously published protocol, at 25 °C for a duration of 60 min using a 50 mM Tris–HCl buffer (pH 7.4) in glass tubes. […] Non-specific binding was evaluated u ...

As to DAMGO [[^3H]DAMGO], the Kd is 500 pM.
